Results published in US10857201B2, “NNIF and nNIF-related peptides and related methods” (UNIVERSITY OF UTAH RESEARCH FOUNDATION, priority 2016, dated 2020).

Experiments:
PMN chemotaxis = assay: IL-8 induced chemotaxis, modified Boyden chamber; format: cell-based, human; settings: IL-8 2 ng/mL, peptides 1 nM
Procedure: FIG. 6D is a graph depicting chemotaxis in response to IL-8 (2 ng/mL) that was examined in a Boyden chamber assay. The dashed line indicates the response to IL-8 alone arbitrarily set at 1.
Chemotaxis by PMNs isolated from healthy adult donors was assessed using a modified Boyden chamber assay ± a 1 hour pre-incubation with nNIF (1 nM), CRISPP (1 nM), or CRISPP-SCR (1 nM). Recombinant human IL-8 (2 ng/mL) was used as the chemoattractant. Chemotaxis through a 5 micron filter was determined by counting PMNs in 10 randomly selected high-power fields as previously described (see Hill H R, et al., Lancet. 1974; 2 (7881):617-9). In separate experiments, nNIF, CRISPP, or CRISPP-SCR (all at 1 nM) were evaluated for chemoattractant activity using the same system.
Without being bound by any specific theory, it was hypothesized that placentally expressed HTRA1, a serine protease, regulates the formation of NET-inhibitory peptides through cleavage of AAT. To test this hypothesis, term and preterm placenta were assessed for HTRA1 expression via western blotting. HTRA1 and AAT plasma expression from term and preterm infants and adults were determined by ELISA. […] Carboxy-terminus fragments of AAT were detected using western blotting and mass spectrometry. […] Reactive oxygen species were assessed using flow cytometry, chemotaxis using a modified Boyden chamber assay, and bacterial killing using E. coli.

[1] = tested on: nuclear chromatin decondensation in PMNs; assay: Nuclear decondensation assay in PMA-treated neutrophils; format: cell-based, human; settings: PMA 20 nM; peptides 1 nM, Cl-amidine 10 μM, sivelestat 200 nM
Procedure: FIG. 7B is a graph depicting nuclear areas that were measured (n=4) using IMAGEJ™ software (mean nuclear pixel area per cell±SEM). Paired Student's t test, *P<0.05, § P=0.057.
FIG. 12A depicts nuclear decondensation (white arrowheads and magnified image) that were assessed as in FIGS. 7A-7E after a 1 hour preincubation in medium alone, with neutrophil elastase (NE) inhibitor sivelestat (SIVL; 200 nM), or with CRISPP or CRISPP-SCR (both 1 nM) followed by treatment with PMA (20 nM) and an additional 1 hour incubation (n=3). Green fluorescence=nuclear DNA, (60× magnification, scale bar=20 μm). Nuclear area was quantified using IMAGEJ™ software (nuclear pixel area per cell±SEM). One way ANOVA with Tukey's post hoc testing; **P<0.01, ***P<0.001.
Nuclear decondensation was identified as described (see Papayannopoulos V, et al., J Cell Biol. 2010; 191 (3):677-91). Five randomly selected high-power visual fields per sample were captured via confocal microscopy and analyzed for nuclear area using the cell-permeable, fluorescent DNA dye SYTO® Green. The nuclear pixel areas of >100 individual cells per high-power field were determined using IMAGEJ™ software (NIH).

recombinant PAD4 = molecular target: T1, recombinant PAD4 (Homo sapiens, UniProt Q9UM07); assay: Cell-free PAD4 deimination assay; format: biochemical; settings: for PAD4 activity: cell-free, synthetic substrate, nNIF 1 nM, Cl-amidine 10 μM; for order of potency of inhibition of PAD4: initial comparison of NRPs
T1 construct: purchased CAYMAN
T1 sequence (Q9UM07 whole entry): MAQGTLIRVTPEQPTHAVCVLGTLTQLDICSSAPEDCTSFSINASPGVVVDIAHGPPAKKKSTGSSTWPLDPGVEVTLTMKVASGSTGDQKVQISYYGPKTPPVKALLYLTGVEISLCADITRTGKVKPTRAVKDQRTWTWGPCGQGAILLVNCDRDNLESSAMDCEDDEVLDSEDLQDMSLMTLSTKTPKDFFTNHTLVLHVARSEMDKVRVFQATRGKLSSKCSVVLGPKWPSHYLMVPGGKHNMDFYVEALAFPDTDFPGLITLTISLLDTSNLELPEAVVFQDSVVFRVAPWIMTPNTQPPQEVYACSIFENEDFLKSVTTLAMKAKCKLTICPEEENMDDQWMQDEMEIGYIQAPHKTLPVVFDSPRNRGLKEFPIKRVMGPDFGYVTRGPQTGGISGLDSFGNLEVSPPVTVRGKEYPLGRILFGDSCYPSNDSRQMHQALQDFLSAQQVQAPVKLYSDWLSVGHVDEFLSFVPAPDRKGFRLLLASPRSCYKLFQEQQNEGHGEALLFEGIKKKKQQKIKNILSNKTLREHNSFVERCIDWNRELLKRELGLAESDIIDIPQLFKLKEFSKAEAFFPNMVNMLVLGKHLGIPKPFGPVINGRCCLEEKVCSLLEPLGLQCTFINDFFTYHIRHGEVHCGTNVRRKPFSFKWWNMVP
Procedure: One way ANOVA with Tukey's post hoc testing, ***P<0.001.
nNIF inhibition of PAD4 activity was determined using a PAD4 inhibitor screening assay kit (CAYMAN™). Briefly, nNIF (1 nM) was incubated with recombinant PAD4 and PAD4 enzyme substrate (2 mM) in PAD4 assay reagent for 30 minutes at 37° C. […] The reaction was stopped with PAD4 Stop Solution and detected using an included ammonia detector assay. Ammonia detector fluorescence was measured at 470 nm following excitation at 405 nm on a SPECTRAMAX™ M5 fluorescence plate reader (MOLECULAR DEVICES™).

[2] = tested on: nuclear histone H3 citrullination; assay: Histone H3 citrullination in PMA-activated neutrophils (immunocytochemistry); format: cell-based, human; settings: PMA 20 nM, 15 minutes; peptides 1 nM, Cl-amidine 10 μM
Description: Green fluorescence=citrullinated-histone H3, magenta fluorescence=nuclear DNA (60× magnification; scale bar=20 μm). The right panel depicts Histone H3 citrullination that was quantified using IMAGEJ™ software (mean citrullinated-histone H3 pixel area per cell±SEM) (n=3). One way ANOVA with Tukey's post hoc testing, *P<0.05.
Imaging was accomplished via confocal microscopy using a FV1000 IX81 confocal microscope and FLUOVIEW™ software (OLYMPUS™). Semi-quantitation was accomplished using IMAGEJ™ software (NIH) to determine the average citrullinated histone H3 content per cell.

Q: How did the IL-8 induced chemotaxis (PMN chemotaxis) turn out when “KFNKPFVFLMIEQNTKSPLFMGKVVNPTQ (listed as Homo sapiens) [nNIF]” was run?
A: did not inhibit

Q: And the “nuclear decondensation (number of decondensed nuclei)” value [1]?
A: dramatically reduced

Q: What about the PAD4 activity (recombinant PAD4) of the same substance?
A: blocked its activity

Q: What about the “order of potency of inhibition of PAD4” value (recombinant PAD4) of the same substance?
A: nNIF ≈CRISPP>A1ATm^358

Q: What about the “nuclear histone H3 citrullination” value [2] of the same substance?
A: inhibited

Q: Which IL-8 induced chemotaxis (PMN chemotaxis) does the source give for “M_IPPEVKFNKPFVFLMIDQNTKVPLFMGK [CRISPP, consensus peptide based on factors present in the blood of patients with cancer]” here?
A: did not inhibit

Q: What about the “nuclear decondensation (number of decondensed nuclei)” value [1] of the same substance?
A: dramatically reduced

Q: And the PAD4 activity (recombinant PAD4)?
A: inhibited

Q: What about the “order of potency of inhibition of PAD4” value (recombinant PAD4) of the same substance?
A: nNIF ≈CRISPP>A1ATm^358

Q: What about the “nuclear histone H3 citrullination” value [2] of the same substance?
A: inhibited
